{
  "source": "patent US20240041870A1",
  "about": "“METHODS OF TREATING SYSTEMIC LUPUS ERYTHEMATOSUS” (AbbVie Inc., priority 2022, published 2024)",
  "key": {"[1]": {"system": "subjects with moderately to severely active SLE", "experiment": "Exposure-response analysis (logistic regression) of upadacitinib steady-state Cavg vs efficacy endpoints", "parameters": "species or system human", "protocol": "Quartile plots for the relationships between upadacitinib steady-state (SS) Cavg and efficacy responses at Week 24 are shown in FIG. 5A to 5C. Specifically, FIG. 5A is an exposure-response quartile plot for upadacitinib efficacy at week 24 for the efficacy endpoint of SLE Responder Index (SRI-4) and Steroid Dose ≤10 mg prednisone equivalent QD, FIG. 5B is an exposure-response quartile plot for upadacitinib efficacy at week 24 for the efficacy endpoint of BILAG-Based Combined Lupus Assessment (BICLA), and FIG. 5C is an exposure-response quartile plot for upadacitinib efficacy at week 24 for the efficacy endpoint of SLE Responder Index (SRI-4).\nThe highest upadacitinib steady-state (SS) Cavg quartile (which would be equivalent to 45 mg QD exposures) was consistently associated with the highest observed response across the three endpoints and was the primary driver for upadacitinib exposure-response trends. The exposure-response model-predicted median (90% prediction interval) percentage of subjects achieving SRI-4 and steroid dose ≤10 mg prednisone equivalent QD, BICLA, and SRI-4 at Week 24 is 50% (42% to 58%), 57% (50% to 65%), and 55% (47% to 62%), respectively, for upadacitinib 30 mg UPA QD compared to 38% (31% to 46%), 39% (32% to 46%), and 40% (32% to 47%), respectively, for placebo. A upadacitinib 45 mg QD dose is predicted to provide 6% to 8% greater responses compared to 30 mg QD.\nQuartile plots for the relationships between upadacitinib Cavg and efficacy responses at Week 48 are shown in FIGS. 10A-10C (SRI-4 and steroid dose ≤10 mg prednisone equivalent, SRI-4, and BICLA, respectively). Based on logistic regression analysis, there is an exposure-response relationship (p <0.05) for upadacitinib with each of the Week 48 efficacy endpoints (SRI-4 and steroid dose (10 mg prednisone equivalent QD, BICLA, and SRI-4). […]"}, "[2]": {"system": "anti-dsDNA autoantibodies, complement C3 and C4, IgG, IgM, circulating B cells", "experiment": "Biomarker analysis in Study M19-130", "format": "in vivo, human", "excerpt": "Biospecimens (whole blood, peripheral blood mononuclear cells [PBMCs], plasma, and serum) were collected at specified time points throughout the study to evaluate known and/or novel disease-related or drug-related biomarkers. Types of biomarkers may have included nucleic acids, proteins, lipids, RNA, DNA, and/or metabolites. The objective of this research was to analyze samples for biomarkers that would help to understand SLE, related conditions, and response to treatment with upadacitinib or similar compounds.\nIncreased circulating memory, naïve, and total B cells were also observed.\nThe Week 48 predefined biomarker analyses confirmed the trends observed at Week 24."}},
  "data": [
    {"smiles": "CC[C@@H]1CN(C(=O)NCC(F)(F)F)C[C@@H]1c1cnc2cnc3[nH]ccc3n12", "note": "[Upadacitinib, (3S,4R)-3-ethyl-4-(3H-imidazo[1,2-a]pyrrolo[2,3-e]pyrazin-8-yl)-N-(2,2,2-trifluoroethyl)pyrrolidine-1-carboxamide]", "values": [
      {"measurement": "plateau for efficacy at the plasma exposures evaluated", "setting": "[1]; exposures associated with 30 mg QD, Week 24", "result": "not reached"},
      {"measurement": "relationship of upadacitinib plasma exposures with SRI-4 and steroid dose ≤10 mg prednisone equivalent, SRI-4, and BICLA at Week 24", "setting": "[1]; logistic regression, p<0.05, Week 24", "result": "statistically significant relationship"},
      {"measurement": "exposure-response relationship with SRI-4 and steroid dose ≤10 mg prednisone equivalent, SRI-4, and BICLA at Week 48", "setting": "[1]; logistic regression, p<0.05, Week 48", "result": "clear exposure-response relationship"},
      {"measurement": "anti-dsDNA autoantibodies", "setting": "[2]; 30 mg QD, Week 48 analysis", "result": "meaningful decreases"},
      {"measurement": "complement C3 level", "setting": "[2]; 30 mg QD, Week 48 analysis", "result": "early reduction (a known effect of JAK inhibitors) followed by a progressive normalization"},
      {"measurement": "complement C4 level", "setting": "[2]; 30 mg QD, Week 48 analysis", "result": "early reduction (a known effect of JAK inhibitors) followed by a progressive normalization"},
      {"measurement": "circulating memory B cells", "setting": "[2]; 30 mg, Week 24 analysis", "result": "Increased"},
      {"measurement": "circulating naïve B cells", "setting": "[2]; 30 mg, Week 24 analysis", "result": "Increased"},
      {"measurement": "circulating total B cells", "setting": "[2]; 30 mg, Week 24 analysis", "result": "Increased"},
      {"measurement": "level of C3 complement compared to Baseline", "setting": "[2]; 30 mg, Week 24 analysis", "result": "significant decrease"},
      {"measurement": "level of C4 complement compared to Baseline", "setting": "[2]; 30 mg, Week 24 analysis", "result": "significant decrease"},
      {"measurement": "level of IgG", "setting": "[2]; 30 mg, Week 24 analysis", "result": "significant decreases"},
      {"measurement": "level of IgM compared to Baseline", "setting": "[2]; 30 mg, Week 24 analysis", "result": "significant decrease"},
      {"measurement": "level of anti-dsDNA autoantibodies", "setting": "[2]; 30 mg, Week 24 analysis", "result": "significant decreases"}
    ]}
  ]
}
